Consider 48 compounds from the Deep4Chem optical property database.

Values joined by “and” are separate entries in the source; they are usually repeats but may differ in a detail not shown here. Equal values may be shown once.

This series in a line: solvent given as SMILES.

`CCN(CC)c1ccc(-c2nc(Oc3ccc(-c4nc5cc([N+](=O)[O-])ccc5[nH]4)cc3)nc(Oc3ccc(-c4nc5cc([N+](=O)[O-])ccc5[nH]4)cc3)n2)cc1` gave an emission maximum (in CN(C)C=O) of 429 nm.
For `CC(C)(C)c1ccc(C2=C(Br)C3=C(c4ccccc4)c4c(Br)c(-c5ccc(C(C)(C)C)cc5)c(-c5ccc(C(C)(C)C)cc5)n4[B-](F)(F)[N+]3=C2c2ccc(C(C)(C)C)cc2)cc1`, the emission maximum by setting is: (in C1CCCCC1) 614 nm; (in C1CCOC1) 617 nm; (in CC#N) 613 nm; (in Cc1ccccc1) 618 nm; (in ClCCl) 619 nm.
On to `Nc1c(-c2nn([C@H]3C[C@H](O)[C@@H](CO)O3)c3ncnc(N)c23)ccc2ccccc12`, for which the emission maximum runs as follows: (in C1COCCO1) 428 nm; (in CC#N) 458 nm; (in CC(C)O) 480 nm; (in CCO) 489 nm; (in CCOC(C)=O) 433 nm; (in CN(C)C=O) 452 nm. The emission maximum was 498 nm (in CO), 450 nm (in CS(C)=O), 404 nm (in OCC(O)CO) and 493 nm (in OCCO).
In the case of `Oc1ccc(-c2cccs2)cc1-c1nc2ccccc2s1`, the emission maximum by setting is: (in CCO) 428 nm; (in ClCCl) 405 nm; (in O) 566 nm.
In the case of `O=[N+]([O-])c1ccc([N+]2=Cc3ccc4c5c(ccc4c3O[B-]2(c2ccccc2)c2ccccc2)C=[N+](c2ccc([N+](=O)[O-])cc2)[B-](c2ccccc2)(c2ccccc2)O5)cc1`, the emission maximum is, setting by setting: (in Cc1ccccc1) 643 nm; (in ClCCl) 642 nm.
In turn, `COc1ccc(-c2cc(/C=C/c3ccc(N(c4ccccc4)c4ccccc4)cc3)c(C#N)c(N3CCCCC3)c2)cc1` registered an emission maximum (in CS(C)=O) of 520 nm.
`CC(C)c1cccc(C(C)C)c1N1C(=O)c2ccc3c(-c4ccccc4)c4c5ccc6c7c(ccc(c(-c8ccccc8)c4c4ccc(c2c34)C1=O)c75)C(=O)N(c1c(C(C)C)cccc1C(C)C)C6=O` showed an emission maximum (in ClCCl) of 702 nm.
The compound `CCCC1=CC2=C(c3c(C)cc(C)cc3C)c3cc(CCC)c(-c4ccc5ccc6cccc7ccc4c5c67)n3[B-](F)(F)[N+]2=C1c1ccc2ccc3cccc4ccc1c2c34` yielded an emission maximum (in ClC(Cl)Cl) of 626 nm.
`O=Cc1ccc(-c2cccc(-c3nc4ccccc4s3)c2O)s1`: the emission maximum was found to be 576 nm (in CCO), 566 nm (in ClCCl) and 595 nm (in O).
`CCOc1ccc(/C=C/c2nc(N3CCOCC3)c3c([n+]2[O-])CCCC3)cc1` returned an emission maximum (in ClCCl) of 515 nm.
`O=C(O)CCCc1cc2ccc3cccc4ccc(c1)c2c34` registered an emission maximum (in CO) of 374 nm.
As to `c1ccc(-c2nnc(-c3ccc(N4c5ccccc5N(c5ccccc5)c5ccccc54)cc3)n2-c2ccccc2)cc1`, the emission maximum was 528 nm (in Cc1ccccc1) and 520 nm (in c1cc(-n2c3ccccc3c3ccccc32)cc(-n2c3ccccc3c3ccccc32)c1).
In the case of `CCCC1(CCC)c2ccccc2-c2ccc(-c3ccc4c(c3)C(CCC)(CCC)c3cc(-c5ccc6c(c5)C(CCC)(CCC)c5ccccc5-6)ccc3-4)cc21`, for the setting “in C1CCCCC1”, the emission maximum is on record as 396 nm.
`C(=C\c1cc2ccccc2c2ccccc12)/c1c2ccccc2cc2ccccc12` returned an emission maximum (in C1CCOC1) of 510 nm.
`COc1ccc(-c2csc(/C(C#N)=C/c3c(Cl)cccc3Cl)n2)cc1`: where the note is “in CC#N”, the emission maximum turned out to be 550 nm.
Regarding `Cc1c(COC(=O)c2ccc(I)cc2)n2c(OCC(=O)c3ccc(I)cc3)c(C)c(=O)n2c1=O`, the emission maximum (in CCO) came out at 458 nm.
With `Oc1ccccc1/C=N/c1ccccc1/N=C/c1ccccc1O`, where the note is “in CC#N”, the emission maximum is 545 nm and 458 nm.
For the setting “in Cc1ccccc1”, `N#Cc1c(-n2c3ccccc3c3cc(I)ccc32)c(C#N)c(-n2c3ccccc3c3cc(I)ccc32)c(-n2c3ccccc3c3cc(I)ccc32)c1-n1c2ccccc2c2cc(I)ccc21` displayed an emission maximum of 518 nm.
In the case of `COC(=O)c1ccc(/C=C2\C=C(c3ccc([N+](=O)[O-])cc3)OC2=O)cc1`, the emission maximum (in C1COCCO1) turned out to be 493 nm.
Take `C(=C\c1cccc2ccccc12)/c1ncc(-c2ccccc2)o1`: the emission maximum (in ClCCl) was 440 nm.
Consider `c1ccc(-c2nc(-c3ccccc3)nc(-c3ccc(-n4c5ccccc5c5c6oc7ccccc7c6ccc54)cc3)n2)cc1`, for which the emission maximum was 393.5 nm (in C1CCCCC1), 473.68 nm (in C1CCOC1), 430.34 nm (in Cc1ccccc1) and 429.14 nm (in O=P(c1ccccc1)(c1ccccc1)c1ccccc1Oc1ccccc1P(=O)(c1ccccc1)c1ccccc1).
For the compound `c1cc2ccc3ccc(OP4(Oc5ccc6ccc7cccc8ccc5c6c78)=NP(Oc5ccc6ccc7cccc8ccc5c6c78)(Oc5ccc6ccc7cccc8ccc5c6c78)=NP(Oc5ccc6ccc7cccc8ccc5c6c78)(Oc5ccc6ccc7cccc8ccc5c6c78)=N4)c4ccc(c1)c2c34`, the emission maximum (in ClCCl) is recorded as 459 nm.
Where the note is “in CCO”, `COc1ccc(C(=O)OCc2ccc3c4cccc5cccc(c6cccc2c63)c54)cc1` had an emission maximum of 447 nm.
In turn, `C1=C(c2ccccc2)C2=Nc3c(-c4ccccc4)cc4n3[B-]3(Oc5ccccc5C1=[N+]23)Oc1ccccc1-4` (stereo not drawn) gave an emission maximum (in Cc1ccccc1) of 746 nm.
Turning to `CCCN1/C(=C/C=C(/C=C/C2=[N+](CCC)c3ccccc3C2(C)C)c2cc[n+](C)cc2)C(C)(C)c2ccccc21`, the emission maximum runs as follows: (in CO) 658 nm; (in CS(C)=O) 657 nm; (in O) 658 nm.
Regarding `CN(C)c1ccc(-c2ccc(C#N)s2)s1`, the emission maximum (in CCO) was determined as 510 nm.
Where the note is “in C1CCOC1”, `C[Si](C)(C)c1ccc(-c2ccc(-c3ccc(-c4ccc(-c5ccc([Si](C)(C)C)s5)cc4)c4nsnc34)cc2)s1` gave an emission maximum of 540 nm.
Same read-out and setting: as for `N#Cc1ccc(N)c(/C=C/C(F)(F)F)c1`, the figure is 409 nm.
`c1ccc2c(c1)c1ccccc1n2-c1ccc2cc(-c3ccc(-c4ccc(-c5cc6ccc(-n7c8ccccc8c8ccccc87)cc6o5)cc4)cc3)oc2c1` came in with an emission maximum (in Cc1ccccc1) of 419 nm and an emission maximum (in c1ccc2c(c1)c1ccccc1n2-c1ccc(-c2ccc(-n3c4ccccc4c4ccccc43)cc2)cc1) of 441 nm.
`N#Cc1nc2c3ccc(N(c4ccccc4)c4ccccc4)cc3c3cc(N(c4ccccc4)c4ccccc4)ccc3c2nc1C#N`: the emission maximum runs as follows: (in C1COCCO1) 586.91 nm; (in CCCCCC) 515.27 nm; (in Cc1ccccc1) 566 nm; (in ClC(Cl)Cl) 639.45 nm; (in O=P(c1ccccc1)(c1ccccc1)c1cccc(-c2cc(-n3c4ccccc4c4ccccc43)cc(-n3c4ccccc4c4ccccc43)c2)n1) 606 nm.
The compound `O=S1(=O)C2=C(c3ccccc31)C1(c3ccccc32)c2ccccc2-c2sc3ccccc3c21` (stereo not drawn) came in with an emission maximum (in ClCCl) of 459 nm.
`CC(C)(C)c1ccc(-n2c(-c3ccc(-c4ccc(N(c5ccccc5)c5ccccc5)cc4)cc3)nc3c4ccccc4c4ccccc4c32)cc1` yielded an emission maximum (in ClCCl) of 442 nm.
As for `N#Cc1c(N2CCCCC2)cc(-c2ccc(Br)s2)c2c1CCc1ccccc1-2`, the emission maximum (in C1CCOC1) came to 493 nm.
As to `Fc1ccc(C#Cc2c(C#Cc3ccc(F)cc3)c(C#Cc3ccc(F)cc3)c(C#Cc3ccc(F)cc3)c(C#Cc3ccc(F)cc3)c2C#Cc2ccc(F)cc2)cc1`, the emission maximum (in ClCCl) turned out to be 450 nm.
Turning to `CC[n+]1c(C=C2C(=O)C(C=C3N(C)c4ccccc4C3(C)C)=C2[O-])sc2ccccc21`, the emission maximum is recorded as 651 nm (in CO) and 666 nm (in ClC(Cl)Cl).
As to `CCCCCCCCN1C(=O)c2ccc3c4c(-c5ccc6c7ccccc7n(-c7ccccc7)c6c5)cc5c6c(ccc(c7c(-c8ccc9c%10ccccc%10n(-c%10ccccc%10)c9c8)cc(c2c37)C1=O)c64)C(=O)N(CCCCCCCC)C5=O`, for the setting “in ClC(Cl)Cl”, the emission maximum was determined as 647 nm.
On the same count and under the same terms, the value for `CCOC(=O)C1(O)c2cc3ccc4cccc5ccc(c2C(=O)N1C(C)(C)C)c3c45` (stereo not drawn) was 387 nm.
`COc1ccc(-c2nc(/C(C#N)=C/c3ccc(Cl)cc3)sc2-c2ccc(OC)cc2)cc1` registered an emission maximum (in CC#N) of 553 nm.
Consider `CCOC(=O)COc1ccc(/C=C/C2=C3c4ccccc4C(c4[nH]c(C)cc4C)=[N+]3[B-](F)(F)n3c(/C=C/c4ccc(OCC(=O)OCC)cc4)cc(C)c32)cc1`, for which the emission maximum by setting is: (in C1CCOC1) 730 nm; (in CC#N) 727 nm; (in CCCCCC) 731 nm; (in CO) 726 nm; (in Cc1ccccc1) 735 nm; (in ClCCl) 733 nm.
With `CCN1C(=CC2=C([O-])C(=Cc3sc4ccccc4[n+]3CC)C2=O)Sc2ccccc21`, the emission maximum runs as follows: (in CO) 663 nm; (in ClC(Cl)Cl) 687 nm.
Compound `Cc1cc(C)c(B(c2ccc(N(c3ccccc3)c3ccccc3)cc2)c2c(C)cc(C)cc2C)c(C)c1` came in with an emission maximum (in Cc1ccccc1) of 437 nm.
With `Nc1ccc2c(c1)oc(=O)c1c(=O)oc3ccccc3c12`, the emission maximum is, setting by setting: (in CS(C)=O) 534 nm; (in ClCCl) 498 nm.
As to `COC1=[N+]2C(=C(c3ccccc3)c3ccc(OC)n3[B-]2(F)F)C=C1`, the emission maximum runs as follows: (in CC#N) 628 nm; (in CCCCCC) 623 nm; (in CCOC(C)=O) 628 nm; (in CO) 620 nm; (in ClCCl) 630 nm.
With `O=C1OC(=O)c2ccc(N(c3ccccc3)c3ccc4ccc5cccc6ccc3c4c56)c3cccc1c23`, the emission maximum is, setting by setting: (in CCCCCC) 536 nm; (in c1ccccc1) 605 nm.
The compound `c1ccc2cc(-c3c4ccccc4c(-c4ccc(-n5c6ccccc6c6ccccc65)cc4)c4ccccc34)ccc2c1` yielded an emission maximum (in ClCCl) of 427 nm.
In the case of `CC1(C)CC(NCc2ccc3ccc4cccc5ccc2c3c45)CC(C)(C)N1`, the emission maximum amounted to 375 nm (in C1CCCCC1), 375 nm (in CC#N), 375 nm (in CO) and 396 nm (in ClC(Cl)Cl).
`CCCCc1ccc(-n2c3c(c4c2c2c(n4-c4ccc(CCCC)cc4)-c4cc(F)ccc4NB2c2ccccc2)B(c2ccccc2)Nc2ccc(F)cc2-3)cc1` gave an emission maximum (in Cc1ccccc1) of 406 nm.
Consider `Cc1c2ccc3c(C)[n+](C)ccc3c2cc[n+]1C`, for which, where the note is “in CC#N”, the emission maximum amounted to 408 nm.
